Laboratory results reported in patent US11331333B2, “Treatment of aberrant fibroblast proliferation” (Georg August Universitaet Goettingen Stiftung Oeffentlichen …, priority 2019, dated 2022).

Tested on: EYA1A^tg mice challenged with UUO
Experiment: Unilateral ureteral obstruction (UUO) kidney fibrosis in EYA1A^tg mice
Format: in vivo, mouse
Conditions: Na3VO4 8 mg/kg or caffeine 12.5 mg/kg i.p. once per day; EYA1Atg mice, UUO
Procedure: From 3 days before surgery, C57BL/6 (referred as wildtype) or transgenic mice overexpressing human splice variants EYA1A (rtTACMV;hEYA1A-pTreTight, referred to as EYA1A^tg) and EYA1C (rtTACMV;hEYA1C-pTreTight, referred to as EYA1C^tg) were treated with either vehicle buffer (glucose 5%) or DOX (2 mg/ml, Sigma, St. Louis, USA) within drinking water ad libidum and renewal every 2 days.
Mice were anesthetized with isoflurane inhalation (2-3%), analgesia was performed by subcutaneous injection of 0.1 mg/kg body weight per day Buprenorphine. The ureter was separated from the surrounding tissues and two ligatures were placed about 5 mm apart in upper two-thirds of the left ureter to obtain reliable obstruction. Mice were sacrificed 3, 7 or 10 days after ureteral obstruction for further analyses.
Mice were injected intraperitoneally with Na3VO4 (8 mg/kg i.p. once per day, Sigma, St. Louis, USA) or caffeine (12.5 mg/kg i.p. once per day, Sigma, St. Louis, USA) starting one day prior of surgery, control mice received equivalent volume of PBS or DMSO.
Mice were injected intraperitoneally with SCR7 (20 mg/kg i.p. every alternate day, Sigma, St. Louis, USA) starting one day prior of surgery, control mice received equivalent volume of DMSO.
The inventors obtained 25 nucleotide antisense morpholino sequences (Gene Tools, Philomath, USA). The in vivo morpholinos contain a covalently linked octaguanidine dendrimer as a delivery moiety to facilitate entry into cells in vivo. Mice were injected intraperitoneally with 12.5 mg/kg body weight in vivo morpholinos in saline at a final volume of 100 μL every other day starting two days prior of surgery. A control in vivo
Lentiviral pLenti-Sce1 was produced in 293T virus packaging cells after transfection using morpholino that targets a human β-globin intron mutation was used as standard control. In vivo morpholino sequences are those of SEQ ID NOs: 9 (EYA1A-VMO), 10 (53Bp1-VMO) and 16 (control).
Formalin-fixed, paraffin-embedded kidneys and hearts from mice, and HOPE-fixed, paraffin-embedded human specimens were sectioned at 3 μm, Masson's Trichrome Stain (MTS) was performed at the University Medicine Göttingen. For morphometric analysis of interstitial fibrosis in mice and human biopsies, we assessed the fibrotic area using cellSens (Olympus, Tokyo, Japan) software. Ten visual fields were selected randomly for each MTS stained section at 200× magnification and the relative interstitial fibrotic area was evaluated by using a 10 mm^2 graticule.
Formalin-fixed, paraffin-embedded kidney sections from mice as well as from HOPE-fixed, paraffin-embedded human specimens were deparaffinized in xylene and rehydrated in ethanol containing distilled water. For immunofluorescent staining, EYA1 isoform antisera or primary antibodies against αSMA (A5228, Sigma, St. Louis, USA), Collagen-1 (ab34710, Abcam Biochemicals, Cambridge, UK), γH2A.X^pS139 (ab2893, Abcam Biochemicals, Cambridge, UK), γH2A.X^pS139 (05-636, Merck Millipore, Billerica, UK), γH2A.X^pY142 (ab94602, Abcam Biochemicals, Cambridge, UK), p-Chk1^pS317 (12302P, Cell Signaling, Danvers, USA), p-Chk2^pT68 (2197S, Cell Signaling, Danvers, USA), Rpa1 (2267S, Cell Signaling, Danvers, USA), Rad51 (sc-8349, Santa Cruz Biotechnology, Dallas, USA), 53Bp1 (sc-22760, Santa Cruz Biotechnology, Dallas, USA), Xrcc4 (sc-8285, Santa Cruz Biotechnology, Dallas, USA) and GFP (MA5-15256, Thermo Fisher Scientific, Waltham, USA) were used, secondary antibodies were labeled with Alexa Fluor 488, 594 or 647 (Life Technologies, Carlsbad, USA). Renal basement membranes were stained with antibodies against Collagen-4 (1340-30, SouthernBiotech, Birmingham, USA). Nuclear staining was performed using 4′,6-diamidino-2-phenylindole (DAPI, Vector Laboratories, Burlingame, USA). Quantifications were performed per high power field at 400× magnification, representative confocal pictures using an LSM 780 confocal laser scanning microscope (Zeiss, Oberkochen, Germany) are shown.

Row | SMILES | impact of EYA1A overexpression on renal fibrogenesis | γH2A.X^pY142 dephosphorylation
1 | [Na+].[Na+].[Na+].[O]=[V]([O-])([O-])[O-] [Na3VO4, sodium orthovanadate] | reversed the enhancing impact | effectively blocked
2 | Cn1c(=O)c2c(ncn2C)n(C)c1=O [caffeine] | reversed the enhancing impact | effectively blocked
